From the METLIN SMRT retention time set (Domingo-Almenara et al. 2019)

Assay: gradient 5% acetonitrile 3 min, to 50% in 2 min, to 85% in 15 min, held 3 min, 100 µL/min
Conditions: column: Zorbax Extend-C18 2.1 x 50 mm; eluents: water / acetonitrile, 0.1% formic acid
Method in brief: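 Retention time was recorded from adduct peaks, which were picked computationally and each inspected manually. Pure standards ran in mixtures of ~100 molecules on HPLC coupled to a quadrupole time-of-flight mass spectrometer, in positive and negative ionization mode, through a Zorbax Extend-C18 column (2.1 × 50 mm, 1.8 μm) at 100 μL/min. Eluents were water and acetonitrile, each with 0.1% formic acid.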

Row | SMILES | RP-LC retention time
1 | CCOCCCNC(=O)C1(C)Cn2c(ccc2-c2ccco2)C(=O)N1c1ccc(F)cc1 (stereo not given) | 808 s
2 | Cc1nc(-c2cc(S(=O)(=O)N3CCC(C(=O)N4CCc5ccccc54)CC3)c(C)s2)no1 | 1040 s
3 | O=C(CSc1ccc(-c2ccccn2)nn1)N1CCCCC1 | 669 s
4 | O=C(Cn1cc(-c2ccccc2)c2ncnc(N3CCOCC3)c21)NC1CCCCC1 | 753 s
5 | O=C(Cc1cn2cc(Br)ccc2n1)N1CCc2ccccc2C1 | 635 s
6 | Cc1ccc2nc(C(=O)NCc3ccccc3Cl)cn2c1 | 718 s
7 | COc1ccc(-c2nnc(COc3cccc(NC(=O)C4CCC4)c3)o2)cc1 | 901 s
8 | CCOc1ccc(C(=O)N2CCN(c3ccc(-c4nc(CC)cs4)cn3)CC2)cc1 | 987 s
9 | COc1ccc(C)cc1NC(=O)N1CCN(c2cnn3c(C)nnc3c2)CC1 | 648 s
10 | Cc1ccccc1S(=O)(=O)N1CCC(C(=O)NCc2csc(-c3cccs3)n2)CC1 | 898 s
11 | Cc1cc(C)c(S(=O)(=O)N(CCN2CCCCC2C)CC(=O)N2CCNCC2)c(C)c1 (stereo not given) | 601 s
12 | CCSc1nnc(NC(=O)C2(c3cc(-c4cccs4)on3)CC2)s1 | 1020 s
13 | CCNC(=O)c1ccc2nnc(C3CC3)n2c1 | 590 s
14 | CCCNC(=O)c1ccc2c(c1)CCCN2S(=O)(=O)CC | 753 s
15 | O=C(O)c1cc(Nc2ccc(F)cc2)c2cccc(Cl)c2n1 | 624 s
16 | COc1ccc(NC(=O)C2c3ccccc3C(=O)N3CCc4ccccc4C23)cc1OC (stereo not given) | 762 s
17 | Cc1ncc2c(n1)C[C@@H]1CC[C@H]2N1C(=O)Nc1ccc(F)cc1F | 649 s
18 | Cc1cccc(-n2cc(C(=O)OCc3ccncc3)c3ccccc3c2=O)c1 | 743 s
19 | Cc1oc2c(c1C(=O)Nc1ccc(F)c(F)c1)C1=NC(C)(C)CN1C=N2 | 655 s
20 | O=C(O)c1cc(-c2ccc3c(c2)OCO3)nc2cc3c(cc12)OCCO3 | 690 s
21 | CC(C)(C)OC(=O)Cn1nc2ccc(S(=O)(=O)N3CCSCC3)cn2c1=O | 888 s
22 | CCC1CN2C=Nc3oc(C)c(C(=O)Nc4ccc(F)c(Cl)c4)c3C2=N1 (stereo not given) | 704 s
23 | CC(C)n1c(=O)c(NCc2ccccc2Br)nc2ccncc21 | 699 s
24 | Cc1cc(-c2nnc(C3CCC3)o2)c(C)n1CC(=O)NCc1cccc(Cl)c1 | 897 s

Row | SMILES | RP-LC retention time
25 | CN(C)c1cnc(-n2cc(NC(=O)CCCc3ccccc3)cn2)nc1 | 724 s
26 | Cc1ccc(NC(=O)C(=O)NCC2CCN(S(C)(=O)=O)CC2)cc1N1CCCC1=O | 627 s
27 | c1ccc(-c2oncc2CN2CCN(c3ccccn3)CC2)cc1 | 603 s
28 | CCOc1ccc(OCC)c(NC(=O)c2cn3c4c(ccc(Cl)c4c2=O)OCC3)c1 | 1100 s
29 | Cc1ccc(CC(=O)Nc2ccc(-c3nc(Cn4cc(C)cn4)c(C)o3)cc2)cc1 | 962 s
30 | O=C(c1ccc2c(c1)nnn2CCN1CCOCC1)N1CCSCC1 | 564 s
31 | c1ccc(-c2nnc(-c3nc(NCCc4cccs4)c4ccccc4n3)o2)cc1 | 1040 s
32 | COc1cc(OC)cc(-c2cc3cnc(N)nc3nc2NC(=O)NC(C)(C)C)c1 | 814 s
33 | Cc1ccc(NS(=O)(=O)c2cc(-c3[nH]ncc3C(=O)N3CCCC3)oc2C)cc1F | 741 s
34 | CCc1ccc(NC(=O)Cn2c(N)nc(C)cc2=O)cc1 | 639 s
35 | Clc1cc2c(nn1)Nc1ccccc1S2 | 892 s
36 | CCn1c(CN(C)C(=O)Nc2ccc3c(c2)OCCO3)nc2cc(C(=O)N(C)C)ccc21 | 611 s
37 | Cc1cnc(C(=O)N2CCCC2c2nc(CCOCC3CC3)no2)cn1 (stereo not given) | 733 s
38 | CC(C)n1cnc(S(=O)(=O)N2CCCC(C(=O)Nc3cccc(Br)c3)C2)c1 (stereo not given) | 898 s
39 | Cc1cc(S(=O)(=O)N2CC=C(c3cn(C)c4ncccc34)CC2)ccc1F | 1050 s
40 | Cc1ccc(S(=O)(=O)N2CCCC(Cn3c(C4CC4)nc4cccnc43)C2)cc1 (stereo not given) | 790 s
41 | CCN1CCN(CCNC(=O)CN2CCCc3nc(C4CC4)ncc3C2=O)CC1 | 564 s
42 | CCCn1c(-c2cccc(C(=O)NCC3CCCCC3)c2)nc2cccnc21 | 904 s
43 | Cc1cc(-c2nnc(-c3ccccc3)o2)c(C)n1CC(=O)Nc1cccc(Cl)c1 | 1030 s
44 | CC(C)n1cnc2cc(CNC(=O)C3CCCCC3)ccc21 | 611 s
45 | Cc1cccc(OCC(=O)c2ccc3c(c2)N(C(C)C(=O)N2CCCC2)C(=O)CO3)c1C (stereo not given) | 922 s
46 | CCc1c(C(=O)O)nnn1Cc1cccc(OC)c1 | 687 s
47 | CC1=C(C(=O)Nc2ccc(C(=O)N3CCN(c4ccc(Cl)cc4)CC3)cc2)SCCO1 | 957 s

Continued, values first:

Row | RP-LC retention time | SMILES
48 | 679 s | O=C(Cn1nc2n(c1=O)CCCC2)N1CCN(c2ccccc2F)CC1
49 | 1060 s | Cc1ccc(C)c(NC(=O)N2c3ccccc3CC2c2nc(C3CC3)no2)c1 (stereo not given)
50 | 710 s | O=C(NC1CCCCCC1)C1CCN(c2cc(N3CCSCC3)ncn2)CC1
51 | 744 s | COc1ccccc1-c1noc(-c2cn(C)c3ccc(F)cc3c2=O)n1
52 | 569 s | Cc1nccn1CCNC(=O)c1cc(-c2ccccc2)on1
53 | 827 s | O=C(NCCCN1CCCc2ccccc21)C1CCc2nc(N3CCCCC3)ncc2C1 (stereo not given)
54 | 1200 s | Cc1ccc(C(=O)N2CCCC2c2nc(-c3cccc(Cl)c3)no2)c(C)c1 (stereo not given)
55 | 556 s | Cc1nnc2cc(N3CCN(Cc4cn[nH]c4-c4ccccc4)CC3)cnn12
56 | 961 s | CCOC(=O)C1CCN(C(=O)c2ccc(-c3csc(C4CC4)n3)cc2)CC1
57 | 569 s | CC(C)C(=O)N1CCN(c2nc(CN3CCOCC3)cs2)CC1
58 | 765 s | COc1ccc(Cl)cc1NS(=O)(=O)c1cn(CC(C)C)c2ncccc12
59 | 904 s | Cc1cccc(NC(=O)c2cnc3c(c2)c(=O)n(C)c(=O)n3-c2ccc(F)cc2)c1
60 | 672 s | Cn1c(N2CCN(C(=O)c3cccc(Br)c3)CC2)cc(=O)n(C)c1=O
61 | 733 s | COc1cc(OC)c2c(=O)cc(-c3cccnc3)oc2c1
62 | 803 s | COc1cc(Cl)ccc1C(=O)N(CC1CCOC1)C1CC1 (stereo not given)
63 | 933 s | COc1ccc2nc(NC(=O)C3CCN(c4nc(-c5ccc(OC)c(OC)c5)no4)CC3)sc2c1
64 | 807 s | Cc1cccc(N(C)C(=O)CCS(=O)(=O)c2ccc3c(c2)CC(C)N3C(=O)C2CC2)c1 (stereo not given)
65 | 574 s | CCOC(=O)N1CCN(C(=O)CSc2nc(=O)[nH]c3c2CCC3)CC1
66 | 798 s | CCNC(=O)N1CC=C(C(=O)Nc2ccc(C)cc2)CC1
67 | 544 s | Cc1cnc(C2CN(Cc3ccc(F)cc3F)C2)n1Cc1cccnc1
68 | 688 s | O=S(=O)(NCC1(O)CCOCC1)c1ccc2c(c1)CCCC2
69 | 810 s | CCCS(=O)(=O)NCc1ccc2c(c1)CCN2C(=O)c1ccccc1

Row | RP-LC retention time | SMILES
70 | 764 s | C=CCc1c(C)nn(-c2nc(CC(=O)Nc3nc4ccccc4[nH]3)cs2)c1C
71 | 1060 s | O=c1ccc(-c2cccc(Cl)c2)nn1CCc1nc(-c2ccc(F)cc2)no1
72 | 913 s | Cc1ccc(S(=O)(=O)N2CCC(C(=O)NCCc3csc(-c4cccs4)n3)CC2)cc1
73 | 897 s | COc1ccc(-c2noc(C3CC(=O)N(c4ccc5c(c4)OCCO5)C3)n2)cc1 (stereo not given)
74 | 930 s | CCCCOc1ccc(CNC(=O)C2CCCN(C(=O)c3[nH]c(C)c(C(=O)OC)c3C)C2)cc1 (stereo not given)
75 | 589 s | O=C(NC1CCc2nnc(C3CC3)n2CC1)c1cccs1 (stereo not given)
76 | 916 s | COc1ccc(CCc2nc3nccc(-c4ccc(F)cc4OC)n3n2)cc1
77 | 766 s | CC(C)CC(=O)N1CCC2(CC1)C(=O)N(C)c1ccccc12
78 | 643 s | CC(C)c1ccc(S(=O)(=O)Nc2cnc(N3CCNCC3)c(C(=O)NCC3CCCO3)c2)cc1 (stereo not given)
79 | 625 s | COc1ccc(Cl)cc1S(=O)(=O)N1CCC(C(=O)NCc2cccnc2)CC1
80 | 839 s | Cc1ccc2[nH]cc(CCNC(=O)Cn3c4ccccc4c4cnn(C)c(=O)c43)c2c1
81 | 975 s | O=C(NCCc1csc(-c2cccs2)n1)C1CCN(S(=O)(=O)c2cccc(Cl)c2)CC1
82 | 777 s | N#Cc1cccc(NC(=O)C2CCCN(S(=O)(=O)c3c[nH]c(C(=O)N4CCCC4)c3)C2)c1 (stereo not given)
83 | 825 s | O=C(NC1CCCN(c2cc(-c3ccc(Cl)cc3)[nH]n2)C1)c1ccc2[nH]ccc2c1 (stereo not given)
84 | 709 s | CN1C(=O)CCc2cc(NC(=O)Cc3ccsc3)ccc21
85 | 793 s | COc1ccc(OCc2noc(CNC(=O)c3ccccc3Cl)n2)cc1
86 | 566 s | O=C(c1ccc(S(=O)(=O)c2ccccc2)nc1)N1CCN(C2CCCCC2)CC1
87 | 794 s | O=C(C1COc2ccccc2O1)N1CCOc2ccc(N3CCCC3)cc2C1 (stereo not given)
88 | 765 s | CSc1cccc(NC(=O)Cn2c(N3CCC(C)CC3)nc(C)cc2=O)c1
89 | 734 s | Cc1cccc(C(=O)N2CCC3(C2)C(=O)Nc2ccccc23)c1 (stereo not given)
90 | 1040 s | CC(C)Cc1ccc([C@H](C)C(=O)O)cc1
